# Source: paper PMC9063426, “MAP kinases differentially bind and phosphorylate NOS3 via two unique NOS3 sites” (FEBS Open Bio, 2022)
# Entries after “also recorded” stand apart in the source; their conditions may differ. Where no end group is shown, it is not given here.
# What was measured:
# NOS3 [1] = details: endothelial cells, inhibition and dominant negative experiments, via S114 phosphorylation; ref [10]; cited from earlier work
# ERK-NOS3 complexes = system: ERK-NOS3 complexes; set-up: method as in PMID 10899167; details: BAECs treated with bradykinin; ref [9]; cited from earlier work
# NOS3 [2] = assay: In vitro kinase assay with NOS3, phospho-specific immunoblotting; assay type: biochemical, human; details: active kinases with NOS3, 5 and 60 min
# Description: (§1) Active (HIS‐NOS3) was incubated alone or with individual kinases (ERK2, p38α, JNK1α1, and PKA) in 100 µL reaction buffer (20 mM HEPES, 0.5 mM DTT, 5 mM MgCl2, 0.5 mM ATP, and 10% glycerol at a pH of 7.4). The reactions were performed at 22‐25 °C for up to 1 h, and for the examination of nitric oxide activity, samples were incubated on ice for the immediate detection of NO via the oxyhemoglobin to methemoglobin assay (see below). For immunoblotting analysis to examine phosphorylation, kinase samples were quenched with 2× sample buffer spiked with 25 mM DTT and heated to 95 °C for 5 min. Boiled samples (at equal volumes) were electrophoresed and transferred to PDVF for immunoblot staining.
# All samples were loaded at equal volumes on 3–8% gradient tris‐acetate gels. All gels were transferred to PVDF membranes and transferred for either 2 h at 40V or for 20V overnight. Membranes were blocked with one block (Li‐Cor Biosciences) for 30 m and incubated with respective antibodies (at manufacturers recommend concentrations for immunoblotting, 1 : 500 for the anti‐pS600‐NOS3) overnight at 4 °C. Blots were brought to RT for 30 m and washed 3× with 1X TBST for 10 m, probed with a fluorometric secondary antibody (Li‐Cor IRDye®) for 1 h, and washed before visualizing with a Li‐Cor Odyssey.
# NOS3 [3] = assay: Oxyhemoglobin assay of NO production by kinase-treated NOS3; assay type: biochemical, human; details: oxyHb assay, 2.5 µM NOS3 with ERK2 14 nM (N = 10), p38α 14 nM (N = 4), JNK1α1-GST 63 nM (N = 3) or PKA 14 nM (N = 4), 30 min; versus untreated NOS3
# Description: as §1
# The oxyhemoglobin assay (oxyHb assay) is a spectroscopic method that measures the oxidative reaction of oxyhemoglobin at 421 nm (oxyHb) and methemoglobin (metHb) at 401 nm. Kinase assay reactions quenched on ice were used to measure NO synthesis and consumption. All oxyHb reactions were performed at 25 °C in a BioTek 96‐well UV‐visible spectrophotometer. Each reaction (100 µL total volume) was mixed with 40 µL of reaction buffer (1 μM FAD, 1 μM FMN, 10% glycerol, 12 nM BH4, 100 μM L‐arginine, 10 mM Tris/HCl, pH 7.5 at 25°, 250 μM CaCl2, 0.20 mg·mL^−1 BSA, 0.31 mg Hemoglobin, 7–10 U Superoxide Dismutase, 7–10 U Catalase, and 17 μg Calmodulin) and up to 40 µL (6–10 µg) of phosphorylated NOS3. Absorbance at 401 nm and 421 nm were read for 1 m at 15‐s intervals. To initiate the reaction, 20 µL of 200 mM NADPH reconstituted in Tris/HCl (1.4 M pH 7.5 at room temperature) was added. Measurements were recorded for 10 min at 15‐s intervals.
# To calculate NOS3 activity, the change in absorbance/unit time was divided by the extinction coefficient (ε401‐421 = 77 200 M ^−1cm^−1 (ε401 = 38 600 M ^−1cm^−1)). This yielded NOS3 activity in units of molar change/unit time. Activity of kinase exposed NOS3 was compared to the NOS3 control activity (comparably treated NOS3 but not phosphorylated), and the data are presented as a percent of the control NOS3.
# NOS3 [4] = details: full-length NOS3; previously reported; ref [4]; cited from earlier work
# Description: While there is substantial nonspecific binding inherent in the NOS1 sample, it is quite clear that there is no observable specific binding. […] This was not surprising since others have qualitatively shown an interaction between NOS3 and JNK [10] and the MAP kinases have similarities in the requirements of binding to activators and substrates. Lack of binding to NOS1 by all three MAP kinases examined thus far strengthens the interpretation that NOS3 is a node for MAP kinase signaling, while NOS1 and NOS2 are not.
# NOS1 = details: previous studies; ref [4]; cited from earlier work
# Description: While there is substantial nonspecific binding inherent in the NOS1 sample, it is quite clear that there is no observable specific binding. […] The NOS1 isoform lacks the pentabasic sequence in the autoinhibitory loop that we hypothe ...
# NOS3 [5] = details: previous report, different (SignalChem GST) ERK2, bovine NOS3; ref [6]; cited from earlier work
# Description: Portions of the NOS3 phosphorylation assays were analyzed for nitric oxide production, using PKA as a positive control. […] It is important to note that we cannot interpret the degree of NOS3 phosphorylation, just that NOS3 was phosphorylate ...
# NOS3 [6] = details: earlier work, ERK2-treated NOS3; ref [6]; cited from earlier work
substance,measurement,setting,value
"JNK2: JNK2, shown to inhibit cellular NO production",cellular NO production,NOS3 [1],inhibited cellular NO production
RPPGFSPFR [bradykinin],effect on ERK-NOS3 complexes,ERK-NOS3 complexes,caused ERK to disassociate from NOS3 complexes and over time the complex reassociated
mitogen‐activated protein kinase 1 [ERK2],phosphorylation of NOS3 at S114,NOS3 [2]; immunoblot with anti-pS114,did not meaningfully phosphorylate S114 when compared to JNK1α1 and p38α
same,phosphorylation of NOS3 at S600,NOS3 [2]; immunoblot with anti-pS600,at S600; also recorded: phosphorylates S600; also recorded: robust when compared to JNK1α1
same,NO production / NOS3 activity,NOS3 [3],do not significantly change NO production; also recorded: did not alter in vitro NOS3 activity
same,Kd,NOS3 [4],160 nM
same,binding to NOS1,NOS1,no binding to NOS1
same,inhibition of NOS3 activity,NOS3 [5],approximately 50%
same,conformation of NOS3,NOS3 [6],presented an altered conformation from untreated NOS3
